Data taken from publication PMC2774495 (Cancer chemotherapy and pharmacology, 2009).
Where two headings read alike, the source gives them in different places. Blank lines part the entries; values can stand above or below the molecule they belong to.

Columns and labels:
CYP1A2 = conditions: read-out: Ki for inhibition of CYP1A2; in vitro; cited from earlier work
2C9 = conditions: read-out: Ki for inhibition of CYP2C9; in vitro; cited from earlier work
expressed CYP2B6 = biological target: T1, expressed CYP2B6 (Homo sapiens, UniProt P20813); assay: Inhibition of expressed CYP2B6; type: biochemical; conditions: read-out: Ki values, expressed CYP2B6; expressed CYP2B6 52 pmol/ml, efavirenz 10–75 μM, mean ± SE, competitive model
T1 sequence (P20813 1-491): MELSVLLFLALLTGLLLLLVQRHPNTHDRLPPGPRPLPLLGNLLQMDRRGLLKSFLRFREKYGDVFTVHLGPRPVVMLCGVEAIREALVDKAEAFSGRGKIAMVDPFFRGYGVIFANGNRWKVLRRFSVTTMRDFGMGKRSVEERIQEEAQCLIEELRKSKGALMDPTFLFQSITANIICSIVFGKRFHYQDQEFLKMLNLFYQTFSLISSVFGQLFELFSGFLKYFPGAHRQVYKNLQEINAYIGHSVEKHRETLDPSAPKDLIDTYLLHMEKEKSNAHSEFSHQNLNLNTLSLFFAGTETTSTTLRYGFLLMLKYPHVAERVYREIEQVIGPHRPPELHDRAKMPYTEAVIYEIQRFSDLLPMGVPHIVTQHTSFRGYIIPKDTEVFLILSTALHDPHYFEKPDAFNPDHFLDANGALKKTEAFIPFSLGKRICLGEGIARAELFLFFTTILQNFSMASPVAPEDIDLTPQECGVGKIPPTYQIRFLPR

CYP2C19 [1] = biological target: T2, CYP2C19 (Homo sapiens, UniProt P33261)
T2 sequence (P33261 whole entry): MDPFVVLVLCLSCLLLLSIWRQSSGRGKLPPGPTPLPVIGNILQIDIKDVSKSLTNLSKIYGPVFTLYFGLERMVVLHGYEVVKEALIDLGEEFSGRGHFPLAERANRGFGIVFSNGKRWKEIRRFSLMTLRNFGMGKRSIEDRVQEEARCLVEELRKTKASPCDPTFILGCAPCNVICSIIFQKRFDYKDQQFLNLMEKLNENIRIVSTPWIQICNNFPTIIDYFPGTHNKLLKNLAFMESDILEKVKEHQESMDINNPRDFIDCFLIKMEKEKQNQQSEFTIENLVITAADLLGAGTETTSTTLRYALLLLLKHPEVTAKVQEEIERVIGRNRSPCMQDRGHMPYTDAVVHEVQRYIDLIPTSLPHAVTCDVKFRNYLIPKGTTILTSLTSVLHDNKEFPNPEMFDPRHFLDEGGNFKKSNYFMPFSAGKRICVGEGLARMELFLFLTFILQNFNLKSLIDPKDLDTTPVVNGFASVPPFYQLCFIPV

expressed CYP2C19 [2] = biological target: T3, expressed CYP2C19 (Homo sapiens, UniProt P33261); conditions: read-out: Ki values, expressed CYP2C19; expressed 2C19 52 pmol/ml, S-mephenytoin 10–75 μM, mean ± SE, competitive model
T3 sequence (P33261 whole entry): as above

[3] = cited from earlier work
CYP2A6 [4] = biological target: T4, CYP2A6 (Homo sapiens, UniProt P11509); assay: Inhibition of CYP2A6
T4 sequence (P11509 1-494): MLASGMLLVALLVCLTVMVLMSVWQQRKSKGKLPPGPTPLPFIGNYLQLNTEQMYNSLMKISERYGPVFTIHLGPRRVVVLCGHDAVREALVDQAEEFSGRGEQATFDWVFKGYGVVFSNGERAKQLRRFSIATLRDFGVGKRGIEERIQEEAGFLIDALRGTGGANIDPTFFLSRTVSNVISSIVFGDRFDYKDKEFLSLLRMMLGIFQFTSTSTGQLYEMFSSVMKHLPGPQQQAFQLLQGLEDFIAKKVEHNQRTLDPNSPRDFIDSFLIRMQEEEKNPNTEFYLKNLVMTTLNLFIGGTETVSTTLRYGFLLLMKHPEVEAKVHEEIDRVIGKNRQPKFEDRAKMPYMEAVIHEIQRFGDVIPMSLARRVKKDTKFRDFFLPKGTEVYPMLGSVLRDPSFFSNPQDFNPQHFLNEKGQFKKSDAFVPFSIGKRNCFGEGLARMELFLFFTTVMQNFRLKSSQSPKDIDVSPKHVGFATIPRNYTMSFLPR

CYP2B6 [5] = biological target: T5, CYP2B6 (Homo sapiens, UniProt P20813); assay: Inhibition of CYP2B6
T5 sequence (P20813 1-491): T1 sequence (P20813 1-491)

expressed CYP2A6 = biological target: T6, expressed CYP2A6 (Homo sapiens, UniProt P11509); assay: Inhibition of expressed CYP2A6; type: biochemical
T6 sequence (P11509 1-494): T4 sequence (P11509 1-494)

CYP2C8 = assay: Inhibition of CYP2C8; type: biochemical; conditions: human, human liver microsomes, pH 7.4, probe amodiaquine 5 μM (desethylation)
CYP3A = assay: Inhibition of CYP3A; type: biochemical; conditions: human, human liver microsomes, pH 7.4, probe midazolam 10 μM (1′-hydroxylation)
CYP isoforms = assay: Assessment of time-dependent inactivation; type: biochemical, human; conditions: preincubation 0 and 15 min with HLM and cofactors, data not shown
CYP2A6 [6] = biological target: T4, CYP2A6; assay: Prediction of in vivo AUC change of CYP2A6 substrates from in vitro Ki; conditions: for AUCI/AUCUI ratio expected in vivo, CYP2A6, free letrozole: unbound letrozole (fu 0.2–0.4)
[7] = cited from earlier work; remark: listed apart in the source
[8] = rat liver tissues; cited from earlier work
[9] = cited from earlier work; remark: listed apart in the source
CYP2A6 [10] = biological target: T4, CYP2A6; assay: in vitro; conditions: microsomes, pH 7.4
CYP2B6 [11] = biological target: T5, CYP2B6; assay: in vitro; conditions: microsomes, pH 7.4
CYP2C9 = CYP2C9 (Homo sapiens, UniProt P11712); assay: in vitro; conditions: microsomes, pH 7.4
CYP2C9, sequence (P11712 whole entry): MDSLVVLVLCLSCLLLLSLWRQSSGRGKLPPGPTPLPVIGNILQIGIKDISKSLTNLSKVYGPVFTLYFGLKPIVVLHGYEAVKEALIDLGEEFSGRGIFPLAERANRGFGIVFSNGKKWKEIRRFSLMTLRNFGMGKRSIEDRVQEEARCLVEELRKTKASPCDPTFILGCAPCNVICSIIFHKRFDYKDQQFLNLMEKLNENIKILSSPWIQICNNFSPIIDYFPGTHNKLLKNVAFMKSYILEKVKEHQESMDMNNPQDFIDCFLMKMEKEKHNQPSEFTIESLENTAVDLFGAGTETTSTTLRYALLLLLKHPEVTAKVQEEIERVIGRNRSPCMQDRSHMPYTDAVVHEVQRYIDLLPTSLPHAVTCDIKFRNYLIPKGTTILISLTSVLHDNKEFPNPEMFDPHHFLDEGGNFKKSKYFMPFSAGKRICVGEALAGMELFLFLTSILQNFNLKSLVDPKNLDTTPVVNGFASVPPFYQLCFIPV

CYP2D6 = CYP2D6 (Homo sapiens, UniProt P10635); assay: in vitro; conditions: microsomes, pH 7.4
CYP2D6, sequence (P10635 whole entry): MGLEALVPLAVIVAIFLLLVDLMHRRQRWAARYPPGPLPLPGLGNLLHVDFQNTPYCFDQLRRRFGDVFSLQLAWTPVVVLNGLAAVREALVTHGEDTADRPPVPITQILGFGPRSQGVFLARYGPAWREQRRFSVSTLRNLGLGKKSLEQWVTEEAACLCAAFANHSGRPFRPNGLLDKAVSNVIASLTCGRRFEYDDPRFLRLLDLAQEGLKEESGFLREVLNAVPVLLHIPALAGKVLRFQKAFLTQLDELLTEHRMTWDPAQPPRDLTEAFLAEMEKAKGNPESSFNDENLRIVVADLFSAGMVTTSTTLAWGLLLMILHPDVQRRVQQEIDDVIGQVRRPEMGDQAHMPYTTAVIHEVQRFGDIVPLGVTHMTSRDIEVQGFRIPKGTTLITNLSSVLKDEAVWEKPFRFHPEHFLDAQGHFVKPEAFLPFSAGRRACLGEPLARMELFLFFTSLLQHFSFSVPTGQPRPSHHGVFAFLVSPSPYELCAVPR

CYP2C19 [12] = biological target: T2, CYP2C19; assay: biochemical
expressed CYP2C19 [13] = biological target: T3, expressed CYP2C19; assay: biochemical

Structure (SMILES): CC(C)(C#N)c1cc(Cn2cncn2)cc(C(C)(C)C#N)c1 [anastrozole]
Ki (CYP1A2): 8 to 10 µM | Ki (2C9): 8 to 10 µM

Structure (SMILES): N#Cc1ccc(C(O)c2ccc(C#N)cc2)cc1 [letrozole metabolite, 4,4′-methanol-bisbenzonitrile]
Ki (expressed CYP2B6): 40.4 ± 14.6 µM | Mode of inhibition of CYP2C19 (CYP2C19 [1]; Dixon plots and enzyme inhibition models, HLMs and expressed CYP2C19): competitive | Ki (CYP2C19 [1]; read-out: Ki values, CYP2C19, HLMs, HLMs (SD-101) 0.5 mg/ml, S-mephenytoin 10–75 μM, mean ± SE, competitive model): 19.5 ± 0.5 µM | Ki (expressed CYP2C19 [2]): 4.5 ± 0.7 µM | Fraction of letrozole dose accounted for by the metabolite ([3]; human): over 60% | Effect on CYP2A6 activity (CYP2A6 [4]; HLMs, 0–100 μM): lack of any effect | Mode of inhibition of CYP2B6 (CYP2B6 [5]; Dixon plots and enzyme inhibition models, HLMs and expressed CYP2B6): competitive | Ki (CYP2B6 [5]; read-out: Ki values, CYP2B6, HLMs, HLMs (HL-091499) 0.5 mg/ml, efavirenz 10–75 μM, mean ± SE, competitive model): 12.9 ± 3.8 µM

IC50 (expressed CYP2A6): 12.5 µM | Ki (expressed CYP2A6): 5 ± 2.4 µM | inhibition at 15 min, 100 μM (CYP2C8): < 20% | inhibition at 5 min, 100 μM (CYP3A): < 20% | AUCI/AUCUI ratio expected in vivo, CYP2A6, total letrozole (CYP2A6 [6]; letrozole plasma concentration 0.5–1 μM (bound + unbound), Ki from HLMs): 1.11–1.22 | Predicted increase in exposure of CYP2A6 substrates (maximum) (CYP2A6 [6]; predicted from in vitro Ki): 11–22% | AUCI/AUCUI ratio expected in vivo, CYP2A6, free letrozole (CYP2A6 [6]; Ki from HLMs): close to unity | AUCI/AUCUI ratio expected in vivo, CYP2A6, free letrozole (CYP2A6 [6]; Ki from HLMs, listed as Letrozole): 1.04–1.09 | Fold Ki for CYP2C19 above therapeutic plasma concentrations of letrozole (CYP2C19 [1]; human): over 40 fold | Mode of inhibition of CYP2C19 (CYP2C19 [1]; microsomes): competitive | Ki at 15 min (CYP2A6 [10]): 4.6 ± 0.1 µM | inhibition at 10 min, 100 μM (CYP2B6 [11]): < 20% | inhibition at 60 min, 100 μM (CYP2C9): < 20% | inhibition at 30 min, 100 μM (CYP2D6): < 20% | IC50 (CYP2C19 [12]): 24.8 µM | Ki (CYP2C19 [12]): 42.2 ± 3.8 µM | IC50 (expressed CYP2C19 [13]): 62.9 µM | Ki (expressed CYP2C19 [13]; Ki values, expressed CYP2C19, expressed 2C19 52 pmol/ml, S-mephenytoin 10–75 μM, mean ± SE, competitive model): 33.3 µM | IC50 (CYP2A6 [4]): 5.9 µM | Mode of inhibition of CYP2A6 (CYP2A6 [4]; Dixon plots and enzyme inhibition models, HLMs and expressed CYP2A6): competitive
Structure (SMILES): N#Cc1ccc(C(c2ccc(C#N)cc2)n2cncn2)cc1 [letrozole, 4,4′-[(1H-1,2,4-triazol-1-yl)methylene] bis-benzonitrile]
Time dependence of inhibition of CYPs (CYP isoforms): not time dependent | Absolute bioavailability [3]: 99.9% | Exposure at steady state higher than at a single dose [3]: 28% | Radioactivity in plasma accounted by unchanged drug ([3]; following 14C-labeled letrozole (2.5 mg)): Approximately 82% | Cmax ([3]; read-out: Average maximum plasma concentration (Cmax) at steady state, women with breast cancer, 2.5 mg/day): ~500 nM | Plasma protein binding [7]: 60% | Liver tissue concentration relative to plasma [8]: > sevenfold | Effect on the pharmacokinetics of known CYP substrates including warfarin, diazepam, and tamoxifen [9]: lack of letrozole's effect
